Assay results: PMC10384639, “Increased In Vivo Exposure of N-(4-Hydroxyphenyl) Retinamide (4-HPR) to Achieve Plasma Concentrations Effective against Dengue Virus” (Pharmaceutics, 2023)
Several values for one entry are separate records, joined by “and”; a condition that tells them apart may be missing. Equal values may be shown once. Read-outs that look alike come from different tables or passages of the source.

Assays:
DENV [1] = test system: DENV; design: method as in PMID 24903662; settings: b.i.d 20 mg/kg 4-HPR, lethal ADE DENV infection; cited from earlier work
[2] = Plasma protein binding by Rapid Equilibrium Dialysis; assay type: in vitro ADME; settings: 37 °C, corrected for dilution; for % Bound / Fraction Unbound 4-HPR: RED 24 h; for fraction unbound at 24 h, 2000 ng/mL: pH 7.4, RED 24 h, read-out: % Bound
Description: (§1) Protein binding of 4-HPR was assessed in human (pooled, Innovative Research Inc., Novi, MI, USA) and mouse (collected in-house from male C57BL6 mice) plasma via Rapid Equilibrium Dialysis (RED) using pre-saturated dialysis units as previously. Briefly, RED inserts were pre-saturated overnight with 400 ng/mL 4-HPR in PBS, after which solutions were removed and discarded, and 300 µL aliquots of diluted human or mouse plasma (10% v/v in pH 7.4 PBS) containing 4-HPR (2000 ng/mL) were added to the donor chamber of the RED inserts (n = 4/matrix) and dialysed against 500 µL of PBS (containing 40 ng/mL 4-HPR). During the 24 h dialysis period, the RED system was sealed with a gas impermeable film, and the plate was maintained at 37 °C under ambient atmosphere in an orbital plate shaker set at 800 rpm (ThermoMixer C; Eppendorf, Hamburg, Germany). At the end of the dialysis period, aliquots were taken from each donor and dialysate chamber to obtain post-dialysis measures of the total and unbound 4-HPR concentrations, respectively. The measured pH of pre- and post-dialysis donor matrix and dialysate buffer was within pH 7.4 ± 0.1.
Donor and dialysate samples were processed and analysed using a matrix matching approach, and all samples were stored frozen at −80 °C until analysis by LC-MS. Compound binding was assessed on the basis of the measured concentrations in dialysate and donor samples at the end of the dialysis period, assuming that the system was at steady state by 24 h. As the binding assay was performed using diluted plasma, data were corrected for the dilution factor to give a binding value for neat plasma via an established approach which accounts for the shift in equilibria that occurs with protein dilution.

[3] = Stability in diluted plasma matrix; assay type: in vitro ADME; settings: diluted mouse plasma (10% v/v in pH 7.4 PBS)
[4] = Equilibrium solubility of 4-HPR in excipients and lipid-based formulations; assay type: physicochemical
Description: Excipients were weighed directly into glass vials at the indicated concentrations, mixed thoroughly, then transferred to Eppendorf tubes and loaded with an excess of 4-HPR. Formulations were then heated to 37 °C, vortexed extensively (initially every hour) and agitated with a stirrer and incubated at 37 °C in a shaking incubator. Periodically (every 1–3 days), undissolved drug was removed from the formulation by centrifugation (20 min at 2100× g, 37 °C) and 20 mg of supernatant was transferred to new tubes for quantification by UHPLC (stored at −20 °C), with the remaining formulation vortexed and agitated vigorously incubated at 37 °C in a shaking incubator until the next sampling. Samples were dissolved in 1 mL 1:1 chloroform:methanol, then diluted 1:100 in acetonitrile.
In this case, the UHPLC assay used a Shimadzu Nexera X2 UHPLC system (Shimadzu Corporation, Kyoto, Japan), with chromatographic separation on a C18 reverse phase column (Kinetex 2.6 μm C18 100 Å, LC Column 50 × 2.1 mm, Phenomenex Inc., Torrance, CA, USA) at 30 °C, with samples stored at 10 °C in the autosampler until injection (3 μL volume). Isocratic elution (79.95% acetonitrile, 19.95% H2O, 0.1% formic acid) was performed at a flow rate of 0.3 mL/min, with absorbance measured by the photodiode array detector. Then, 4-HPR standards (50–0.521 μg/mL) were created by successive serial dilution of a 50 μg/mL stock standard in acetonitrile, with area under curve at absorbance of 365 nm used to generate a standard curve using LabSolutions software V.5.82.

DENV [5] = settings: cited from earlier work
[6] = Stability in diluted plasma matrix; assay type: in vitro ADME; settings: diluted human plasma (10% v/v in pH 7.4 PBS)
Description: as §1

ZIKV = test system: ZIKV; design: method as in PMID 33439253; settings: read-out: In vitro EC50; cited from earlier work
[7] = Single-dose IV PK of 4-HPR in mice with and without ABT; assay type: in vivo, male C57Bl/6 mice; settings: for half-life / AUC(0-inf) / clearance / Vd: plasma; for half-life: read-out: Apparent t1/2 (converted); for AUC(0-inf): read-out: Plasma AUC0-inf; for Vd: read-out: Plasma VSS
Description: C57Bl/6 mice (22.6–28.7 g) having access to food and water ad libitum throughout the pre- and post-dose sampling period were dosed with 4-HPR either orally by gavage (2–10 mL/kg, depending upon formulation) or IV by bolus injection into the lateral tail vein (50 μL/animal, 2 mL/kg), and blood samples were collected up to 49 h post-dose by either submandibular bleed or terminal cardiac puncture (n = 3–5 mice per timepoint for each formulation) with a maximum of four samples from each mouse. Blood samples were mixed with heparin, potassium fluoride and complete protease inhibitor cocktail (Roche Diagnostics, Mannheim, Germany), centrifuged and supernatant plasma was removed and stored at −80 °C until analysis by LC-MS. Specifics of formulations used in PK experiments are detailed in Supplementary Table S1.
For in vivo CYP inhibition experiments, repeat oral doses of ABT (50 mg/kg b.i.d commencing 4 h before 4-HPR administration, 5 mL/kg by gavage) were administered according to a regimen shown to maintain ongoing CYP inhibition. Blood samples were collected from ABT-treated mice for up to 72 h after dosing 4-HPR.
For 4-HPR quantification, proteins were precipitated from plasma samples using acetonitrile (2-fold volume ratio) prior to analysis using a Waters Acquity Ultra-High Performance Liquid Chromatography (UHPLC) system coupled to a Waters Xevo TQ MS system (Waters Corporation, Milford, MA, USA). Chromatographic separation was performed using a C8 reverse phase column (Ascentis Express RP C8, 50 × 2.1 mm, 2.7 μm, Merck KGaA, Darmstadt, Germany) and a 3 μL injection volume. Gradient elution (methanol-water gradient with 0.05% formic acid) was performed at a flow rate of 0.4 mL/min, cycle time of 4 min, with detection by positive electrospray ionisation in multiple-reaction monitoring mode. Then, 4-HPR standards (10,000–0.5 ng/mL) were prepared in blank plasma, with diazepam as an internal standard (10 μL of 5 μg/mL in 50% acetonitrile/water per sample). For 4-HPR, the retention time was 2.97 min, m/z transition 392.23 > 161.15, cone voltage 30 V and CID 20 V.
The dose administered to each mouse was calculated on the basis of the pre-dose body weight, the volume of formulation administered, and the 4-HPR concentration in the formulation. The plasma concentration versus time profile was defined by the average plasma concentration at each sample time, and PK parameters were calculated using non-compartmental methods (PKSolver Version 2.0) using the average dose administered to the dosing group.
To illustrate the differences in 4-HPR plasma exposure profiles that would be expected in mice upon repeat-dose administration (b.i.d, 10 h/14 h at 20 mg/kg) of the different formulations, profiles were simulated using a simple compartmental PK approach. Initially, a linear 2-compartment model was fitted (PKSolver, Version 2.0) to the mean plasma concentration-time profile obtained after bolus IV administration of 4-HPR. The parameter estimates thus obtained (i.e., V1, k10, k12 and k21—see Supplementary Table S2) were considered to define the systemic disposition of 4-HPR and were fixed during simulation of the oral profiles. Oral profiles were simulated using a differential equation-based compartmental model scripted in Berkeley Madonna (version 8.3.1.8). Systemic disposition parameters were fixed as described above, under the assumption that the post-absorption distribution and elimination of 4-HPR was independent of the formulation administered. Bioavailability was fixed at the value determined by non-compartmental analysis, and the first order rate constant for compound absorption was manually varied until the simulated concentration-time profile was in close agreement with the experimental concentration-time data obtained after single-dose administration of pre-dispersed lipid formulation. […] These were obtained by setting the bioavailability (F) to the value determined for each formulation by non-compartmental analysis.

DENV2 = test system: DENV2; design: method as in PMID 25313218; settings: b.i.d 180 mg/kg, AG129 mouse viremia model; cited from earlier work
[8] = male, C57Bl/6, mouse, in vivo, iv
[9] = male, C57Bl/6, mouse, iv, 2 mg/kg, single-dose 2 mg/kg IV, +ABT (50 mg/kg, b.i.d)
[10] = male, C57Bl/6, mouse, iv, 2 mg/kg, single-dose 2 mg/kg IV, −ABT

## CC1=C(/C=C/C(C)=C/C=C/C(C)=C/C(=O)Nc2ccc(O)cc2)C(C)(C)CCC1 [4-HPR, N-(4-hydroxyphenyl) retinamide]
DENV [1]
  Protection of infected mice: 70%
[2]; human plasma
  % Bound: > 99.95%
  Fraction Unbound 4-HPR: < 0.0005
[2]; male, C57BL6, mouse plasma diluted to 10% v/v in PBS
  fraction unbound at 24 h, 2000 ng/mL: < 0.0005
[2]; mouse plasma
  % Bound: > 99.95%
  Fraction Unbound 4-HPR: < 0.0005
[2]; pooled human plasma diluted to 10% v/v in PBS
  fraction unbound at 24 h, 2000 ng/mL: < 0.0005
[3]
  Stability in diluted plasma: no evidence of any degradation
[4]; in Capmul-MCM-EP, 37 °C
  4-HPR Concentration (equilibrium solubility): 34 mg/g and 34 ± 4.3 mg/g
[4]; in Capryol 90, 37 °C
  4-HPR Concentration (equilibrium solubility): 48 ± 6.0 mg/g
[4]; in Captex 355 EP/NF, 37 °C
  4-HPR Concentration (equilibrium solubility): 14 ± 0.1 mg/g
[4]; in Corn oil, 37 °C
  4-HPR Concentration (equilibrium solubility): 3.9 ± 0.2 mg/g
[4]; in Cremophor EL, 37 °C
  4-HPR Concentration (equilibrium solubility): 10 ± 0.2 mg/g
[4]; in Ethanol, 37 °C
  4-HPR Concentration (equilibrium solubility): 113 mg/g and 113 ± 1.3 mg/g
[4]; in Gelucire 44/14, 37 °C
  4-HPR Concentration (equilibrium solubility): 6.0 ± 0.2 mg/g
[4]; in Kolliphor RH 40, 37 °C
  4-HPR Concentration (equilibrium solubility): 5.5 ± 0.6 mg/g
[4]; in Labrasol, 37 °C
  4-HPR Concentration (equilibrium solubility): 7.3 ± 0.1 mg/g
[4]; in Lauroglycol 90, 37 °C
  4-HPR Concentration (equilibrium solubility): 39 mg/g and 39 ± 1.4 mg/g
[4]; in Maisine 35-1, 37 °C
  4-HPR Concentration (equilibrium solubility): 21 ± 7.6 mg/g
[4]; in Maisine CC, 37 °C
  4-HPR Concentration (equilibrium solubility): 26 ± 1.6 mg/g
[4]; in PEG400, 37 °C
  4-HPR Concentration (equilibrium solubility): 82 ± 0.7 mg/g
[4]; in Polysorbate 80, 37 °C
  4-HPR Concentration (equilibrium solubility): 24 ± 4.9 mg/g
[4]; in Soybean Oil, 37 °C
  4-HPR Concentration (equilibrium solubility): 2.7 ± 0.1 mg/g
[4]; in Transcutol, 37 °C
  4-HPR Concentration (equilibrium solubility): 217 ± 8.8 mg/g
[4]; in Tween 85, 37 °C
  4-HPR Concentration (equilibrium solubility): 71 mg/g and 71 ± 9.1 mg/g
DENV [5]; DENV, read-out: In vitro EC50
  EC50: 1 to 2 µM
DENV [5]; all four infectious DENV strains in vitro, read-out: EC50
  EC50: ~1 µM
[6]
  Stability in diluted plasma: no evidence of any degradation
ZIKV
  EC50: 1 to 2 µM
[7]; IV 2 mg/kg, +ABT versus −ABT
  Fold increase in exposure with ABT treatment after IV dosage: 0.2 fold
[7]; fit to IV data, −ABT
  V1 (2-compartment model estimate): 0.233 L/kg
  k21 (2-compartment model estimate): 0.561 h⁻¹
[7]; [8]
  k10 (2-compartment model estimate): 1.20 h⁻¹
  k12 (2-compartment model estimate): 5.42 h⁻¹
[7]; [9]
  half-life: 12.1 h
  AUC(0-inf): 24.5 µM·h
  Vd: 3.2 L/kg
[7]; male, C57Bl/6, mouse, iv, 2 mg/kg, single-dose 2 mg/kg IV, +ABT (50 mg/kg, b.i.d), read-out: Plasma CL
  clearance: 0.216 L/h/kg
[7]; male, C57Bl/6, mouse, iv, 2 mg/kg, single-dose 2 mg/kg IV, −ABT, 10% DMSO, 90% PEG400
  half-life: 8.1 h
[7]; [10]
  AUC(0-inf): 21.6 µM·h
  Vd: 1.9 L/kg
[7]; male, C57Bl/6, mouse, iv, 2 mg/kg, single-dose 2 mg/kg IV, −ABT, read-out: Plasma CL
  clearance: 0.246 L/h/kg
[7]; male, C57Bl/6, mouse, iv, observed under both conditions (±ABT), read-out: In vivo systemic clearance
  clearance: 0.264 L/h/kg
DENV2
  Reduction of DENV2 viremia: > 50 fold
